This passage reports Drug metabolism, fold change (FC) and Activity results from ChEMBL document CHEMBL4673393, “Synthesis and Metabolism of BTN3A1 Ligands: Studies on Modifications of the Allylic Alcohol” (ACS Med Chem Lett, 2021).

SMILES strings stand for the structures. Calls of active or inactive are those of the source. No cut-off for these calls is given here.

Data set [1] is described as follows: Prodrug conversion in human K562 cells assessed as conversion of monoacid in allylic aldehyde form at 100 uM measured after 1 hr by LC-MS analysis. The class given is ADME, cell-based. Conditions: k562, 1 h.
Data set [2] deals with Butyrophilin subfamily 3 member A1 (Homo sapiens) (UniProt O00481). Nature of the data set: Binding affinity to BTN3A1 in human PBMC-derived Vgamma9/Vdelta2 T cells assessed as induction of Vgamma9Vdelta2 T cells proliferation incubated for 3 days by gamma delta TCR/PE-CD3+ antibody staining based FACS analysis relative to HMBP analog. The settings on record: Vgamma9Vdelta2 T cell, time 3.0 day. Background: A flow cytometer gives signals particle by particle.

For data set [3] the target is unchanged. Description: Binding affinity to BTN3A1 in human K562 cells assessed as induction of Vgamma9/Vdelta2 T cell-mediated interferon gamma release preincubated for 4 hrs followed by compound washout and subsequent Vgamma9Vdelta2 T cell addition measured after 20 hrs by ELISA. The format is cell-based.
Data set [4] relates to K562. Description: Toxicity in human K562 cells assessed as reduction in cell viability at 100 uM after 72 hrs by Qb reagent based fluorescence assay. Conditions: k562, 72 h.
Data set [5] is described as follows: Prodrug conversion in human K562 cells assessed as dehydration by measuring DMAP monoacid formation at 100 uM measured after 1 hr by LC-MS analysis. The format is ADME, cell-based. The settings on record: k562, 1 h.
The nature of data set [6]: Prodrug conversion in human K562 cells assessed as conversion of free acid alcohol at 100 uM measured after 1 hr by LC-MS analysis. The settings on record: k562, 1 h. The format is ADME, cell-based.
The nature of data set [7]: Prodrug conversion in human K562 cells assessed as glutathione conjugation at 100 uM measured after 1 hr by LC-MS analysis. The format is ADME, cell-based. The settings on record: k562, 1 h.
Data set [8] can be described thus: Prodrug conversion in human K562 cells assessed as conversion of phosphonic monoacid in allylic aldehyde form at 100 uM measured after 1 hr by LC-MS analysis. The format is ADME, cell-based. Conditions: k562, 1 h.
Data set [9] is described as follows: Prodrug conversion in human K562 cells assessed as conversion of monoacid in allylic alcohol form at 100 uM measured after 1 hr by LC-MS analysis. Conditions: k562, 1 h. The class given is ADME, cell-based.
Data set [10] is described as follows: Prodrug conversion in human K562 cells assessed as conversion of phosphonic monoacid in allylic alcohol form at 100 uM measured after 1 hr by LC-MS analysis. The class given is ADME, cell-based. Conditions: k562, 1 h.

Chain of Butyrophilin subfamily 3 member A1 (Homo sapiens) (O00481 30-513 limits assumed): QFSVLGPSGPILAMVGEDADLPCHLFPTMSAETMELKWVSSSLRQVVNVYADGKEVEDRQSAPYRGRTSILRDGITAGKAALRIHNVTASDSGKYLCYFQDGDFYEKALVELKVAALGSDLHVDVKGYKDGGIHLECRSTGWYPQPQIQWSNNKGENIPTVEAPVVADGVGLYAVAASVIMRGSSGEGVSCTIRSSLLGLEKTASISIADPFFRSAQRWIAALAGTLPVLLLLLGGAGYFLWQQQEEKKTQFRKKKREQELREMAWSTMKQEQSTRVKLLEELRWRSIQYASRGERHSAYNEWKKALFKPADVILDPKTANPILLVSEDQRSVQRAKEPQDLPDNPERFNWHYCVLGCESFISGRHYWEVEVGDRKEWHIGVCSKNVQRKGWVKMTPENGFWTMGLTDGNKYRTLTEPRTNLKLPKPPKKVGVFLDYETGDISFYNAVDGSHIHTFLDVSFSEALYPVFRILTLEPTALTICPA

As to `CCOC(=O)CNP(=O)(CC/C=C(C)/C=N/O)Oc1ccccc1` (stereo unspecified), in [1], the Drug metabolism result is given as “Metabolite_Detected”. Moreover, in data set [2], the fold change (FC) is above 2100.

Regarding `C/C(C=O)=C\CCP(=O)(NCC(=O)OC(C)C)Oc1ccccc1` (stereo unspecified), the fold change (FC) in data set [2] amounted to 45.

Regarding `C/C(C=O)=C\CCP(=O)(OCOC(=O)C(C)(C)C)Oc1ccc2ccc(=O)oc2c1` (stereo unspecified), the result in data set [3] was Active. The fold change (FC) in data set [2] was found to be 2.

`COC(=O)CNP(=O)(CC/C=C(\C)C=O)Oc1ccccc1` (stereo unspecified): the Activity result in data set [4] is reported as “Toxic”. In data set [2], the fold change (FC) came to 31.

For the compound `C/C(C=O)=C\CCP(=O)(OCOC(=O)C(C)(C)C)OCOC(=O)C(C)(C)C`, the Drug metabolism result in [5], in [6], in data set [7], in data set [1] and in data set [8] was “Metabolite_Detected” throughout. In data set [4], the Activity result was “Toxic”. The fold change (FC) in [2] stood at 9.

`CCOC(=O)CNP(=O)(CC/C=C(\C)C=O)Oc1ccccc1` (stereo unspecified): the Drug metabolism entry in [1] is recorded as “Metabolite_Detected”. In addition, the fold change (FC) in [2] was found to be 56.

As for `C/C(C=O)=C\CCP(=O)(OCOC(=O)C(C)(C)C)Oc1ccc2ccccc2c1` (stereo unspecified), the Drug metabolism entry in data set [6], in [1] and in [8] was “Metabolite_Detected” in each case. In addition, the outcome in [3] was Active. In addition, the Activity result in data set [4] is “Toxic”. In addition, the fold change (FC) in [2] came to 2.

For the compound `C/C(=C\CCP(=O)(OCOC(=O)C(C)(C)C)OCOC(=O)C(C)(C)C)CO`, the Drug metabolism result is on record as “Metabolite_Notdetected” in data set [1], “Metabolite_Notdetected” in data set [8], “Metabolite_Detected” in data set [9] and “Metabolite_Detected” in [10].
